The structures appear in SMILES notation.
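Note: alveolar rhabdomyosarcoma tumor culture.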

In this test the test system is U23674 (mouse alveolar rhabdomyosarcoma primary culture).
For the molecule `CCCNc1cccc(-n2ncc3c(N/N=C/c4ccncc4)ncnc32)c1`, the IC50 cell viability was > 10 µM.
For `O=C(Nc1n[nH]c2cc(-c3ccccc3)ccc12)C1CC1` the value was > 10 µM.
In the case of `Cc1cc(O)cc(C)c1/C=C/c1cncc(C(=O)OC(C)(C)C)c1` it was > 10 µM.
On to `COc1ccc(-c2ccncc2)cc1C(N)=O`, for which the IC50 cell viability was > 10 µM.
In turn, `Fc1ccc(-c2ncn(C3CCNCC3)c2-c2ccnc(Oc3ccccc3)n2)cc1` yielded an IC50 cell viability of 3.3 µM.
For `Cc1ccc(NC(=O)CC2CC2)cc1-c1ccc(C(=O)NCC2CC2)cc1` the value was 3.4 µM.
In the case of `Clc1ccc(CNc2nccc(-c3cnn4ncccc34)n2)cc1` it was > 10 µM; in that of `NS(=O)(=O)c1ccc(-c2ccc3c(NC(=O)C4CC4)n[nH]c3c2)cc1`, > 10 µM; in that of `N#Cc1cccc(Nc2nccc(-c3cnn4ncccc34)n2)c1`, 0.05 µM.
As for `O=C1Nc2ccc(I)cc2C1=Cc1cc(Br)c(O)c(Br)c1`, the IC50 cell viability is > 10 µM.
For `O=C1NC(=O)C(c2ccccc2Cl)=C1Nc1cccc(O)c1` the value was 2 µM; for `Cn1c(-c2nonc2N)nc2cnccc21`, > 10 µM; for `NS(=O)(=O)c1ccc(N=Nc2c(O)[nH]c3cccc(CCc4ccncc4)c23)cc1`, > 10 µM.
In the case of `COc1ccc(-c2ccc3c(NC(=O)C4CC4)n[nH]c3n2)cc1` it was > 10 µM; in that of `COc1cc2c(cc1Nc1nc(Nc3ccsc3C(N)=O)c3cc[nH]c3n1)N(C(=O)CN(C)C)CCC2`, 0.05 µM; in that of `Fc1ccc(-c2nn3ccccc3c2-c2ccncc2)cc1`, > 10 µM.
`CCn1c(-c2nonc2N)nc2ccc(F)cc21`: the IC50 cell viability is > 10 µM.
In the case of `ON=C1CCc2cc(-c3nc(C4CCNCC4)[nH]c3-c3ccncc3)ccc21` it was > 10 µM.
In the case of `CCn1c(-c2nonc2N)nc2c(C#CC(C)(C)O)nc(CN3CCCC3)cc21` it was > 10 µM.
For the molecule `COc1ccc(-c2coc3ncnc(N)c23)cc1`, the IC50 cell viability is > 10 µM.
For `Cn1cc(C=C2C(=O)Nc3cccnc32)c2ccccc21` the value was > 10 µM; for `CN(C)CCOc1ccc(-c2nc(-c3ccncc3)c(-c3ccc4c(c3)CC/C4=N\O)[nH]2)cc1`, > 10 µM; for `COc1ccc(-c2oc3ncnc(N)c3c2-c2ccc(NC(=O)Nc3cc(C(F)(F)F)ccc3F)cc2)cc1`, > 10 µM.
On to `O=C(Nc1n[nH]c2cc(-c3cc(F)ccc3F)ccc12)C1CC1`, for which the IC50 cell viability is > 10 µM.
For `FC(F)(F)c1cccc(Nc2nccc(-c3cnn4nc(-c5ccccc5)ccc34)n2)c1` the value was > 10 µM.
As to `CC1=C(C(=O)Nc2cc(Cl)c3[nH]ncc3c2)C(c2ccc(C(F)(F)F)cc2)CC(=O)N1` (stereo not drawn), the IC50 cell viability was > 10 µM.
For `Cc1ccc(C(=O)NC2CC2)cc1-c1ccc2[nH]ncc2c1` the value was > 10 µM; for `O=C(NCC1CC1)c1ccc(-c2cccc(C(=O)NC3CC3)c2)cc1`, > 10 µM.
As for `CCn1cc(-c2ccnc3[nH]ccc23)c(-c2cccc(NC(=O)Nc3ccc(OCc4ccccc4)cc3)c2)n1`, the IC50 cell viability was > 10 µM.
In the case of `O=C1NC(=O)C(c2ccc(Cl)cc2)=C1Nc1ccc(Cl)c(C(=O)O)c1` it was 3.9 µM; in that of `CCN1CCC(CC(=O)Nc2n[nH]c3nnc(-c4cccc(F)c4F)cc23)CC1`, 5.1 µM.
For `CCn1c(-c2nonc2N)nc2c(C#CC(C)(C)O)ncc(OC3CCNCC3)c21` the value was > 10 µM; for `CN(c1ccc(NC(=O)Nc2c(Cl)cccc2Cl)cc1)c1ccnc(Nc2cccc(CS(C)(=O)=O)c2)n1`, > 10 µM; for `O=S(=O)(CCNCc1ccc(-c2ccc3ncnc(Nc4ccc(OCc5cccc(F)c5)c(Cl)c4)c3c2)o1)c1ccccc1`, > 10 µM.
In the case of `CN(C)c1cc2c(Nc3ccc4nc(Cc5ccccc5)[nH]c4c3)ncnc2cn1` it was > 10 µM; in that of `COc1ccc(-c2nn3ncccc3c2-c2ccnc(Nc3ccc(Cl)c(C(F)(F)F)c3)n2)cc1`, > 10 µM; in that of `O=C(Nc1n[nH]c2nnc(-c3cccnc3)cc12)C1CC1`, > 10 µM.
For `Nc1nc(-c2cccc(Cl)c2)c(-c2ccc3ncccc3n2)s1`, the IC50 cell viability was > 10 µM.
In the case of `OCc1ccc(-c2nc(-c3ccc4c(c3)OCO4)c(-c3ccccn3)[nH]2)cc1` it was > 10 µM.
In the case of `CCOc1ccc2c(-c3ccnc(Nc4cc(OC)cc(C(F)(F)F)c4)n3)cnn2n1`, the IC50 cell viability is > 10 µM.
For `COc1cc(C)c(NC(=O)CN(C)C)cc1Nc1nc(Nc2cccc(F)c2C(N)=O)c2cc[nH]c2n1` the value was > 10 µM; for `O=C(OC1CNC(C#Cc2cc3ncnc(Nc4ccc5c(ccn5Cc5cc(F)ccc5F)c4)c3s2)C1)N1CCOCC1` (stereo not drawn), > 10 µM; for `COc1ccc(CNC(=O)c2ccc(-c3cc(-c4nnc(C)o4)ccc3C)cc2)cc1`, > 10 µM.
For `COC(=O)Nc1nc2ccc(Oc3ccc(NC(=O)Nc4cccc(C(=O)O)c4)cc3)cc2[nH]1` the value was > 10 µM; for `Cc1cc(O)cc(C)c1/C=C/c1cncc(-c2nn[nH]n2)c1`, > 10 µM.
Take `CCS(=O)(=O)c1ccc(OC)c(Nc2ncc(-c3ccccc3Cl)o2)c1`: the IC50 cell viability was > 10 µM.
In the case of `O=C1Nc2ccc(C(=O)c3ccco3)cc2/C1=C/c1cc(Cl)c(O)c(Cl)c1` it was > 10 µM.
In the case of `CCn1c(-c2nonc2N)nc2c(N3CCCC3)nccc21` it was > 10 µM; in that of `CN(C)CCNC(=O)Nc1ccc(N(C)c2ccnc(Nc3ccc(CS(C)(=O)=O)cc3)n2)cc1`, > 10 µM.
Turning to `Fc1cccc(COc2ccc(Nc3ncncc3C#Cc3ccccc3)cc2Cl)c1`, the IC50 cell viability was > 10 µM.
In the case of `CNC(=O)c1cncc(/C=C/c2ccccc2Cl)c1` it was > 10 µM; in that of `COc1ccc2ncn(-c3cc(O[C@H](C)c4ccccc4Cl)c(C(N)=O)s3)c2c1`, 2 µM.
In the case of `CS(=O)(=O)CCNCc1ccc(-c2ccc3ncnc(Nc4ccc(OCc5ccccc5)c(Cl)c4)c3c2)o1` it was > 10 µM; in that of `O=C(Nc1n[nH]c2nc(-c3ccco3)ccc12)C1CC1`, > 10 µM; in that of `Fc1ccc(-c2c(-c3ccncc3)nc3n2CCS3)cc1`, > 10 µM.
Turning to `[O-][S+]1CCN(Cc2ccc(-c3ccc4ncnc(Nc5ccc(OCc6ccccc6)c(F)c5)c4c3)o2)CC1`, the IC50 cell viability is > 10 µM.
In the case of `CCn1c(-c2nonc2N)nc2c(C#CC(C)(C)O)ncc(OCC3CCCN3)c21` (stereo not drawn) it was 5.2 µM; in that of `CS(=O)(=O)Nc1ccc(-c2cc(-c3ccccc3)cc(C(N)=O)c2N)cc1`, > 10 µM; in that of `CCS(=O)(=O)c1ccc(OC)c(Nc2nccc(N(C)c3ccc4c(C)[nH]nc4c3)n2)c1`, > 10 µM.
In the case of `COC(=O)Nc1nc2ccc(Sc3ccc(NC(=O)Nc4cc(C(F)(F)F)ccc4F)cc3)cc2[nH]1` it was > 10 µM.
For `Cc1cc(-c2ccco2)cc(C)c1/C=C/c1cncc(-c2nn[nH]n2)c1` the value was > 10 µM; for `CNC(=O)c1cncc(/C=C/c2ccccc2C)c1`, > 10 µM.
Regarding `Nc1ncnc2occ(-c3ccc(NC(=O)Nc4cc(C(F)(F)F)ccc4F)cc3)c12`, the IC50 cell viability is > 10 µM.

(Values after the supplement of paper PMC6580486.)
